According to patent publication US9073935B2, “Substituted benzylspiroindolin-2-one analogs as positive allosteric modulators of the muscarinic acetylcholine receptor M1” (VANDERBILT UNIVERSITY, priority 2011, dated 2015):
Read-outs that look alike come from different tables or passages of the source.

Molecular target: T1, mAChR M1 (UniProt P11229)
T1 sequence (P11229 1-460): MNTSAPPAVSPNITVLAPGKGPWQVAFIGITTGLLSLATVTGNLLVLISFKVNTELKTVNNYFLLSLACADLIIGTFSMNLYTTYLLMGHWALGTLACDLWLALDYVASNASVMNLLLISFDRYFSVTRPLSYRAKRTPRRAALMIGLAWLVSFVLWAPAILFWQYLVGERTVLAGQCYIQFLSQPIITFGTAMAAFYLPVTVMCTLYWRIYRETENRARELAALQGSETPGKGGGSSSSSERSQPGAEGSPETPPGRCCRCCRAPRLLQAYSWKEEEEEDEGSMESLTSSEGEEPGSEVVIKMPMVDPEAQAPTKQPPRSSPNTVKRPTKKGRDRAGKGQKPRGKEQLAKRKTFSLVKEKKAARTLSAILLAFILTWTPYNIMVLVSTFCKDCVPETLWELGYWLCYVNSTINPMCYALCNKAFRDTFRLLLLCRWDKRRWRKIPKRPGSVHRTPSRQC
Assay: mAChR M1 cell-based functional assay (calcium mobilization, potentiation of EC20 acetylcholine response)
Settings: for EC50: CHO-K1 cells expressing mAChR M1, increase in EC20 acetylcholine response, >10 μM estimated where no plateau in the curve
Procedure: Chinese hamster ovary (CHO-K1) cells stably expressing rat (r)M1 were purchased from the American Type Culture Collection and cultured according to their indicated protocol. […] To make stable rM2, hM2, rM3, hM4, and rM4 cell lines for use in calcium mobilization assays, these cells also were stably transfected with a chimeric G-protein (Gqi5) (provided by B. R. Conklin, University of California, San Francisco) using Lipofectamine 2000. rM1, hM1, rM3, hM3, rM5, and hM5 cells were grown in Ham's F-12 medium containing 10% heat-inactivated fetal bovine serum (FBS), 20 mM HEPES, and 50 μg/mL G418 sulfate. rM2-Gqi5, hM2-Gqi5, and hM4-Gqi5 cells were grown in the same medium also containing 500 μg/mL Hygromycin B. Stable rM4-Gqi5 cells were grown in DMEM containing 10% heat-inactivated FBS, 20 mM HEPES, 400 μg/mL G418 sulfate, and 500 μg/mL Hygromycin B.
For high throughput measurement of agonist-evoked increases in intracellular calcium, CHO-K1 cells stably expressing muscarinic receptors were plated in growth medium lacking G418 and hygromycin at 15,000 cells/20 μL/well in Greiner 384-well black-walled, tissue culture (TC)-treated, clear-bottom plates (VWR). Cells were incubated overnight at 37° C. and 5% CO2. […] Compound master plates were formatted in an 11 point CRC format (1:3 dilutions) in 100% DMSO with a starting concentration of 10 mM using the BRAVO liquid handler (Agilent). Test compound CRCs were then transferred to daughter plates ([…]) using the Echo acoustic plate reformatter (Labcyte, Sunnyvale, Calif.) and then diluted into assay buffer (40 μL) to a 2× stock using a Thermo Fisher Combi (Thermo Fisher Scientific, Waltham, Mass.).
Calcium flux was measured using the Functional Drug Screening System (FDSS) 6000 (Hamamatsu Corporation, Tokyo, Japan) as an increase in the fluorescent static ratio. Compounds were applied to cells (20 μL, 2×) using the automated system of the FDSS 6000 at 4 s into the 300 s protocol and the data were collected at 1 Hz. […] Agonist activity was analyzed as a concentration-dependent increase in calcium mobilization upon compound addition. Positive allosteric modulator activity was analyzed as a concentration-dependent increase in the EC20 acetylcholine response. Antagonist activity was analyzed as a concentration-dependent decrease in the EC80 acetylcholine response. Concentration-response curves were generated using a four-parameter logistical equation in XLfit curve fitting software (IDBS, Bridgewater, N.J.) for Excel (Microsoft, Redmond, Wash.) or Prism (GraphPad Software, Inc., San Diego, Calif.).
The calcium mobilization assay was also used to determine “efficacy”. In the context of the assays carried out for the data in Table II, “efficacy” (% ACh at 30 μM) is defined as the maximal response in the calcium flux as determined by the sigmoidal curve fit of the concentration response curve, or in the absence of an acceptable curve fit, the response recorded at 30 μM test compound, stated as a percentage of the response elicited by a concentration of Ach that induces approximately 80% of a maximal (i.e. saturating) ACh response.
Substituted benzylspiroindolin-2-one analogs were synthesized as described above. Activity (EC50 and Emax) was determined in the mAChR M1 cell-based functional assay as described above and the data are shown in Table III. The compound number corresponds to the compound numbers used in Tables I and II.

Emax	EC50	Emax (% ACh maximum at 30 μM)	Structure (SMILES)
53%	3.4 µM	–	Cn1cc(-c2ccc(CN3C(=O)C4(CCN(CC(F)F)C4)c4ccccc43)c(F)c2)cn1 (stereo not drawn) [Compound B26, 1′-(2,2-difluoroethyl)-1-(2-fluoro-4-(1-methyl-1H-pyrazol-4-yl)benzyl)spiro[indoline-3,3′-pyrrolidin]-2-one]
–	3.5 µM	63%	CN1CCC(N2CCC3(C2)C(=O)N(Cc2ccc(-c4cnn(C)c4)cc2F)c2ccccc23)CC1 (stereo not drawn) [Compound B27]
–	3.7 µM	57%	Cn1cc(-c2ccc(CN3C(=O)C4(CCN(C5COC5)C4)c4ccccc43)c(F)c2)cn1 (stereo not drawn) [Compound B28]
–	3.7 µM	51%	Cc1nn(C)cc1-c1ccc(CN2C(=O)C3(CCN(C4CCCC4)C3)c3ccccc32)c(F)c1 (stereo not drawn) [Compound B30]
–	3.8 µM	41%	CCCn1cc(-c2ccc(CN3C(=O)C4(CCN(C5CCCC5)C4)c4ccccc43)c(F)c2)cn1 (stereo not drawn) [Compound B32]
–	4.4 µM	32%	CC(C)N1CCC2(C1)C(=O)N(Cc1ccc(-c3cnn(C)c3)cc1F)c1ccccc12 (stereo not drawn) [Compound B37]
–	4.9 µM	56%	Cn1cc(-c2ccc(CN3C(=O)C4(CCN(C(=O)C5CC5)C4)c4ccccc43)c(F)c2)cn1 (stereo not drawn) [Compound B41]
–	6 µM	69%	CC(C)CN1CCC2(C1)C(=O)N(Cc1ccc(-c3cnn(C)c3)cc1F)c1ccccc12 (stereo not drawn) [Compound B49]
–	6 µM	58%	Cn1cc(-c2ccc(CN3C(=O)C4(CCN(C5CNC5)C4)c4ccccc43)c(F)c2)cn1 (stereo not drawn) [Compound B50]
–	6.2 µM	50%	Cn1cc(-c2ccc(CN3C(=O)C4(CCN(C(=O)C5CCC5)C4)c4ccccc43)c(F)c2)cn1 (stereo not drawn) [Compound B51]
–	6.7 µM	46%	CC1CCC(N2CCC3(C2)C(=O)N(Cc2ccc(-c4cnn(C)c4)cc2F)c2ccccc23)CC1 (stereo not drawn) [Compound B52]
–	7 µM	51%	CC1CCCC1N1CCC2(C1)C(=O)N(Cc1ccc(-c3cnn(C)c3)cc1F)c1ccccc12 (stereo not drawn) [Compound B54]
–	> 10 µM	36%	Cn1cc(-c2ccc(CN3C(=O)C4(CCN(Cc5ccccc5)C4)c4ccccc43)c(F)c2)cn1 (stereo not drawn) [Compound B57]
–	> 10 µM	53%	Cn1cc(-c2ccc(CN3C(=O)C4(CCN(C5CCC(F)(F)CC5)C4)c4ccccc43)c(F)c2)cn1 (stereo not drawn) [Compound B59]
–	> 10 µM	39%	CC1CCCCC1N1CCC2(C1)C(=O)N(Cc1ccc(-c3cnn(C)c3)cc1F)c1ccccc12 (stereo not drawn) [Compound B60]
–	> 10 µM	36%	Cn1cc(-c2ccc(CN3C(=O)C4(CCN(CC5CCCCC5)C4)c4ccccc43)c(F)c2)cn1 (stereo not drawn) [Compound B61]
–	> 10 µM	54%	Cn1cc(-c2ccc(CN3C(=O)C4(CCN(C(=O)C5CCCCC5)C4)c4ccccc43)c(F)c2)cn1 (stereo not drawn) [Compound B62]
–	> 10 µM	54%	CC(=O)N1CCC2(C1)C(=O)N(Cc1ccc(-c3cnn(C)c3)cc1F)c1ccccc12 (stereo not drawn) [Compound B63, 1′-acetyl-1-(2-fluoro-4-(1-methyl-1H-pyrazol-4-yl)benzyl)spiro[indoline-3,3′-pyrrolidin]-2-one]
–	> 10 µM	35%	Cn1cc(-c2ccc(CN3C(=O)C4(CCN(S(C)(=O)=O)C4)c4ccccc43)c(F)c2)cn1 (stereo not drawn) [Compound B65, 1-(2-fluoro-4-(1-methyl-1H-pyrazol-4-yl)benzyl)-1′-(methylsulfonyl)spiro[indoline-3,3′-pyrrolidin]-2-one]
–	7.2 µM	69%	Cn1cc2c(-c3cc(F)c(CN4C(=O)C5(CCNC5)c5ccccc54)c(F)c3)cccc2n1 (stereo not drawn) [Compound B74]
–	5.4 µM	66%	CN1CCC2(C1)C(=O)N(Cc1c(F)cc(-c3cccc4nn(C)cc34)cc1F)c1ccccc12 (stereo not drawn) [Compound B75]

Further lines, the compound ahead of its results:

Structure (SMILES)	Emax	EC50	Emax (% ACh maximum at 30 μM)
Cn1cc(-c2ccc(CN3C(=O)C4(CCN(C5CCCSC5)CC4)c4ccccc43)c(F)c2)cn1 (stereo not drawn) [Compound B29]	–	3.7 µM	42%
Cn1cc(-c2ccc(CN3C(=O)C4(CCN(C5CCNC5)CC4)c4ccccc43)c(F)c2)cn1 (stereo not drawn) [Compound B33]	–	3.9 µM	52%
CN1CCC2(CC1)C(=O)N(Cc1ccc(-c3cnn(C)c3)cc1F)c1ccccc12 [Compound B36]	–	4 µM	48%
Cn1cc(-c2ccc(CN3C(=O)C4(CCN(C5CCCOC5)CC4)c4ccccc43)c(F)c2)cn1 (stereo not drawn) [Compound B38]	–	4.7 µM	50%
CN1CCC(N2CCC3(CC2)C(=O)N(Cc2ccc(-c4cnn(C)c4)cc2F)c2ccccc23)C1 (stereo not drawn) [Compound B39]	–	4.7 µM	55%
Cn1cc(-c2ccc(CN3C(=O)C4(CCN(C5CCSCC5)CC4)c4ccccc43)c(F)c2)cn1 [Compound B40]	–	4.7 µM	38%
Cn1cc(-c2ccc(CN3C(=O)C4(CCN(C5CCSC5)CC4)c4ccccc43)c(F)c2)cn1 (stereo not drawn) [Compound B42]	–	4.9 µM	51%
Cn1cc(-c2ccc(CN3C(=O)C4(CCN(C5CCCNC5)CC4)c4ccccc43)c(F)c2)cn1 (stereo not drawn) [Compound B43]	–	5 µM	48%
CC(C)N1CCC(N2CCC3(C2)C(=O)N(Cc2ccc(-c4cnn(C)c4)cc2F)c2ccccc23)CC1 (stereo not drawn) [Compound B44]	–	5 µM	49%
Cn1cc(-c2ccc(CN3C(=O)C4(CCN(C5CCCC5)CC4)c4ccccc43)c(F)c2)cn1 [Compound B46]	–	5.5 µM	34%
CN1CCC(N2CCC3(CC2)C(=O)N(Cc2ccc(-c4cnn(C)c4)cc2F)c2ccccc23)CC1 [Compound B48]	–	5.9 µM	51%
CN1CCCC(N2CCC3(CC2)C(=O)N(Cc2ccc(-c4cnn(C)c4)cc2F)c2ccccc23)C1 (stereo not drawn) [Compound B53]	–	6.7 µM	57%
Cn1cc(-c2ccc(CN3C(=O)C4(CCN(C5COC5)CC4)c4ccccc43)c(F)c2)cn1 [Compound B55]	–	7 µM	45%
Cn1cc(-c2ccc(CN3C(=O)C4(CCCO4)c4ccccc43)cc2)cn1 (stereo not drawn) [Compound B56, 1′-(4-(1-methyl-1H-pyrazol-4-yl)benzyl)-4,5-dihydro-3H-spiro[furan-2,3′-indolin]-2′-one]	–	7.8 µM	45%
CN1CCCC12C(=O)N(Cc1ccc(-c3cnn(C)c3)cc1)c1ccccc12 (stereo not drawn) [Compound B64, 1′-methyl-1-(4-(1-methyl-1H-pyrazol-4-yl)benzyl)spiro[indoline-3,2′-pyrrolidin]-2-one]	–	> 10 µM	48%
Cn1cc(-c2ccc(CN3C(=O)C4(CCN(C5CCC5)CC4)c4ccccc43)c(F)c2)cn1 [Compound B66]	–	> 10 µM	32%
Cn1cc(-c2ccc(CN3C(=O)C4(CCN(C5CCOCC5)CC4)c4ccccc43)c(F)c2)cn1 [Compound B69]	–	> 10 µM	41%
Cn1cc(-c2ccc(CN3C(=O)C4(CCN(C5CCOC5)CC4)c4ccccc43)c(F)c2)cn1 (stereo not drawn) [Compound B71]	–	> 10 µM	36%
